Tests used:
[1] = molecular target: T1, full-length beta-Catenin (Uniprot ID P35222) (Homo sapiens, UniProt P35222); assay: Fluorescence polarization IC50 (beta-catenin / 5FAM-TCF4 10-53 competition); format: binding; conditions: fluorescence polarization; read-out: beta-Catenin FP IC50
T1 construct: 10 nM full-length beta-Catenin (Uniprot ID P35222)
T1 sequence (P35222 1-781): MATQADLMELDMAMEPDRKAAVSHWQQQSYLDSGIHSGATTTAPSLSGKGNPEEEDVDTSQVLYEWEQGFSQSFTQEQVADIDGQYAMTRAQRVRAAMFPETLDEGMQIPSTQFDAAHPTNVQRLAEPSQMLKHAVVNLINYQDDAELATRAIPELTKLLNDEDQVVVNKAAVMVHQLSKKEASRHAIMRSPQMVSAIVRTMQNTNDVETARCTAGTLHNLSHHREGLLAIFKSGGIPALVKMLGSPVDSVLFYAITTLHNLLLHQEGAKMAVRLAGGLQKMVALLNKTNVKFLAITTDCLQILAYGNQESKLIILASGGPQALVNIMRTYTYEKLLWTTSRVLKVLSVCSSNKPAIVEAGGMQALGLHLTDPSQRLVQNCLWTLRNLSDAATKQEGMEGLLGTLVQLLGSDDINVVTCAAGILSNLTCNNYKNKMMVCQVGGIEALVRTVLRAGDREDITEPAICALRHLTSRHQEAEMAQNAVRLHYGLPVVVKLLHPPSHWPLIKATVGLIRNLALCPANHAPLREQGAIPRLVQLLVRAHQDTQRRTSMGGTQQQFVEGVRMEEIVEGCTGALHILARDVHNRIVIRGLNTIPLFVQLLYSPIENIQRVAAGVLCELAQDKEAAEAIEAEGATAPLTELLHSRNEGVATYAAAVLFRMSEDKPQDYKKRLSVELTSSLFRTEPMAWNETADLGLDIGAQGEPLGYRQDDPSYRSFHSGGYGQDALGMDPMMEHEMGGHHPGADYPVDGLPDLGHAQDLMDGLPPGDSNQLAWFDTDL

[2] = molecular target: T2, beta-catenin/TCF4 engagement (Homo sapiens, UniProt P35222); assay: Nano-BRET target engagement assay (B-cat-Halo & TCF4-Luc in HEK293 cells); format: cell-based; conditions: read-out: NanoBRET Abs IC50
T2 construct: expressed in transfected cells; host or cells: HEK293
T2 sequence (P35222 1-781): T1 sequence (P35222 1-781)

Row | SMILES | IC50 [1] [µM] | IC50 [2] [µM]
1 | CC(=O)N1CCC[C@]12CC=CCCCC1(CCCC=CCCCOC(=O)N3CC[C@@](C(=O)N[C@@H](Cc4ccccc4Cl)C(=O)N[C@@H](Cc4csc5ccccc45)C(=O)N[C@@H](CC(N)=O)C(N)=O)(C3)NC(=O)[C@H](C)NC(=O)[C@H](Cc3ccccc3)NC(=O)[C@H](C)NC(=O)[C@H](C)NC(=O)[C@H](Cc3cccc(C(=O)O)c3)NC(=O)[C@H](CC(=O)O)NC1=O)NC(=O)[C@H](CC(C)(C)C)NC(=O)[C@H](CC(=O)O)NC2=O (stereo partly drawn) [I-2035, Ac-PL3-Asp-Npg-B5-Asp-3COOHF-Ala-Ala-Phe-Ala-PyrS2-2C1F-BztA-Asn-NH2] | 0.016 | 14.5
2 | CC(=O)N1CCC[C@]12CC=CCCCC1(CCCC=CCCCOC(=O)N3CC[C@@](C(=O)N[C@@H](Cc4ccccc4Cl)C(=O)N[C@@H](Cc4csc5ccccc45)C(=O)N[C@@H](CC(N)=O)C(N)=O)(C3)NC(=O)[C@H](C)NC(=O)[C@H](Cc3ccccc3)NC(=O)[C@H](C)NC(=O)[C@H](C)NC(=O)[C@H](Cc3cccc(C(=O)O)c3)NC(=O)[C@H](CC(=O)O)NC1=O)NC(=O)[C@H](CC(C)(C)C)NC(=O)[C@H](CC(=O)O)NC2=O (stereo partly drawn) [I-2036, Ac-PL3-Asp-Npg-B5-Asp-3COOHF-Ala-Ala-Phe-Ala-PyrS2-2C1F-BztA-Asn-NH2] | 0.019 | 12.9
3 | CC(=O)N1CCC[C@]12CC=CCCCC1(CCCC=CCCCOC(=O)N3CC[C@@](C(=O)N[C@@H](Cc4ccccc4Cl)C(=O)N[C@@H](Cc4csc5ccccc45)C(=O)N[C@@H](CC(N)=O)C(N)=O)(C3)NC(=O)[C@H](Cc3ccccc3)NC(=O)[C@H](Cc3ccccc3)NC(=O)[C@H](C)NC(=O)[C@H](C)NC(=O)[C@H](Cc3cccc(C(=O)O)c3)NC(=O)[C@H](CC(=O)O)NC1=O)NC(=O)[C@H](CC(C)(C)C)NC(=O)[C@H](CC(=O)O)NC2=O (stereo partly drawn) [I-2037, Ac-PL3-Asp-Npg-B5-Asp-3COOHF-Ala-Ala-Phe-Phe-PyrS2-2C1F-BztA-Asn-NH2] | 0.017 | 5
4 | CC(=O)N1CCC[C@]12CC=CCCCC1(CCCC=CCCCOC(=O)N3CC[C@@](C(=O)N[C@@H](Cc4ccccc4Cl)C(=O)N[C@@H](Cc4csc5ccccc45)C(=O)N[C@@H](CC(N)=O)C(N)=O)(C3)NC(=O)[C@H](CO)NC(=O)[C@H](Cc3ccccc3)NC(=O)[C@H](C)NC(=O)[C@H](C)NC(=O)[C@H](Cc3cccc(C(=O)O)c3)NC(=O)[C@H](CC(=O)O)NC1=O)NC(=O)[C@H](CC(C)(C)C)NC(=O)[C@H](CC(=O)O)NC2=O (stereo partly drawn) [I-2038, Ac-PL3-Asp-Npg-B5-Asp-3COOHF-Ala-Ala-Phe-Ser-PyrS2-2C1F-BztA-Asn-NH2] | 0.011 | 11.8
5 | CC(=O)N1CCC[C@]12CC=CCCCC1(CCCC=CCCCOC(=O)N3CC[C@@](C(=O)N[C@@H](Cc4ccccc4Cl)C(=O)N[C@@H](Cc4csc5ccccc45)C(=O)N[C@@H](CC(N)=O)C(N)=O)(C3)NC(=O)[C@H](CO)NC(=O)[C@H](Cc3ccccc3)NC(=O)[C@H](C)NC(=O)[C@H](C)NC(=O)[C@H](Cc3cccc(C(=O)O)c3)NC(=O)[C@H](CC(=O)O)NC1=O)NC(=O)[C@H](CC(C)(C)C)NC(=O)[C@H](CC(=O)O)NC2=O (stereo partly drawn) [I-2039, Ac-PL3-Asp-Npg-B5-Asp-3COOHF-Ala-Ala-Phe-Ser-PyrS2-2C1F-BztA-Asn-NH2] | 0.009 | 10.5
6 | CC(=O)N1CCC[C@]12CC=CCCCC1(CCCC=CCCCOC(=O)N3CC[C@@](C(=O)N[C@@H](Cc4ccsc4)C(=O)N[C@@H](Cc4csc5ccccc45)C(=O)N[C@@H](CC(N)=O)C(N)=O)(C3)NC(=O)[C@H](C)NC(=O)[C@H](Cc3ccccc3)NC(=O)[C@H](C)NC(=O)[C@H](C)NC(=O)[C@H](Cc3cccc(C(=O)O)c3)NC(=O)[C@H](CC(=O)O)NC1=O)NC(=O)[C@H](CC(C)(C)C)NC(=O)[C@H](CC(=O)O)NC2=O (stereo partly drawn) [I-2042, Ac-PL3-Asp-Npg-B5-Asp-3COOHF-Ala-Ala-Phe-Ala-PyrS2-3Thi-BztA-Asn-NH2] | 0.009 | 10
7 | CC(=O)N1CCC[C@]12CC=CCCCC1(CCCC=CCCCOC(=O)N3CC[C@@](C(=O)N[C@@H](Cc4ccsc4)C(=O)N[C@@H](Cc4csc5ccccc45)C(=O)N[C@@H](CC(N)=O)C(N)=O)(C3)NC(=O)[C@H](CO)NC(=O)[C@H](Cc3ccccc3)NC(=O)[C@H](C)NC(=O)[C@H](C)NC(=O)[C@H](Cc3cccc(C(=O)O)c3)NC(=O)[C@H](CC(=O)O)NC1=O)NC(=O)[C@H](CC(C)(C)C)NC(=O)[C@H](CC(=O)O)NC2=O (stereo partly drawn) [I-2045, Ac-PL3-Asp-Npg-B5-Asp-3COOHF-Ala-Ala-Phe-Ser-PyrS2-3Thi-BztA-Asn-NH2] | 0.005 | 13.5
8 | CC(=O)N1CCC[C@]12CC=CCCCC1(CCCC=CCCCOC(=O)N3CC[C@@](C(=O)N[C@@H](Cc4ccsc4)C(=O)N[C@@H](Cc4csc5ccccc45)C(=O)N[C@@H](CC(N)=O)C(=O)N[C@@H](C)C(=O)N[C@@H](C)C(=O)N[C@@H](C)C(N)=O)(C3)NC(=O)[C@H](CC(C)C)NC(=O)[C@H](Cc3ccccc3)NC(=O)[C@H](C)NC(=O)[C@H](C)NC(=O)[C@H](Cc3cccc(C(=O)O)c3)NC(=O)[C@H](CC(=O)O)NC1=O)NC(=O)[C@H](CC(C)(C)C)NC(=O)[C@H](CC(=O)O)NC2=O (stereo partly drawn) [I-2046, Ac-PL3-Asp-Npg-B5-Asp-3COOHF-Ala-Ala-Phe-Leu-PyrS2-3Thi-BztA-Asn-Ala-Ala-Ala-NH2] | 0.012 | 2.9
9 | CC(=O)N1CCC[C@]12CC=CCCCC1(CCCC=CCCCOC(=O)N3CC[C@@](C(=O)N[C@@H](Cc4ccsc4)C(=O)N[C@@H](Cc4csc5ccccc45)C(=O)N[C@@H](C)C(N)=O)(C3)NC(=O)[C@H](CC(C)C)NC(=O)[C@H](Cc3ccccc3)NC(=O)[C@H](C)NC(=O)[C@H](CC(N)=O)NC(=O)[C@H](Cc3cccc(C(=O)O)c3)NC(=O)[C@H](CC(=O)O)NC1=O)NC(=O)[C@H](CC(C)(C)C)NC(=O)[C@H](CC(=O)O)NC2=O (stereo partly drawn) [I-2049, Ac-PL3-Asp-Npg-B5-Asp-3COOHF-Asn-Ala-Phe-Leu-PyrS2-3Thi-BztA-Ala-NH2] | 0.005 | 4.5
10 | CC(=O)N1CCC[C@]12CC=CCCCC1(CCCC=CCCCOC(=O)N3CC[C@@](C(=O)N[C@@H](Cc4ccsc4)C(=O)N[C@@H](Cc4csc5ccccc45)C(=O)N[C@@H](C)C(N)=O)(C3)NC(=O)[C@H](CC(C)C)NC(=O)[C@H](Cc3ccccc3)NC(=O)[C@H](C)NC(=O)[C@H](CO)NC(=O)[C@H](Cc3cccc(C(=O)O)c3)NC(=O)[C@H](CC(=O)O)NC1=O)NC(=O)[C@H](CC(C)(C)C)NC(=O)[C@H](CC(=O)O)NC2=O (stereo partly drawn) [I-2050, Ac-PL3-Asp-Npg-B5-Asp-3COOHF-Ser-Ala-Phe-Leu-PyrS2-3Thi-BztA-Ala-NH2] | 0.009 | 4.9
11 | CC(=O)N1CCC[C@]12CC=CCCCC1(CCCC=CCCCOC(=O)N3CC[C@@](C(=O)N[C@@H](Cc4ccsc4)C(=O)N[C@@H](Cc4csc5ccccc45)C(=O)N[C@@H](C)C(N)=O)(C3)NC(=O)[C@H](CC(C)C)NC(=O)[C@H](Cc3ccccc3)NC(=O)[C@H](C)NC(=O)[C@H]([C@@H](C)O)NC(=O)[C@H](Cc3cccc(C(=O)O)c3)NC(=O)[C@H](CC(=O)O)NC1=O)NC(=O)[C@H](CC(C)(C)C)NC(=O)[C@H](CC(=O)O)NC2=O (stereo partly drawn) [I-2051, Ac-PL3-Asp-Npg-B5-Asp-3COOHF-Thr-Ala-Phe-Leu-PyrS2-3Thi-BztA-Ala-NH2] | 0.016 | 8.3
12 | CC(=O)N1CCC[C@]12CC=CCCCC1(CCCC=CCCCOC(=O)N3CC[C@@](C(=O)N[C@@H](Cc4ccsc4)C(=O)N[C@@H](Cc4csc5ccccc45)C(=O)N[C@@H](C)C(N)=O)(C3)NC(=O)[C@H](Cc3ccccc3)NC(=O)[C@H](Cc3ccccc3)NC(=O)[C@H](C)NC(=O)[C@H](CCC(N)=O)NC(=O)[C@H](Cc3cccc(C(=O)O)c3)NC(=O)[C@H](CC(=O)O)NC1=O)NC(=O)[C@H](CC(C)(C)C)NC(=O)[C@H](CC(=O)O)NC2=O (stereo partly drawn) [I-2052, Ac-PL3-Asp-Npg-B5-Asp-3COOHF-Gln-Ala-Phe-Phe-PyrS2-3Thi-BztA-Ala-NH2] | 0.012 | 6
13 | CC(=O)N1CCC[C@]12CC=CCCCC1(CCCC=CCCCOC(=O)N3CC[C@@](C(=O)N[C@@H](Cc4ccsc4)C(=O)N[C@@H](Cc4csc5ccccc45)C(=O)N[C@@H](C)C(N)=O)(C3)NC(=O)[C@H](C)NC(=O)[C@H](Cc3ccccc3)NC(=O)[C@H](C)NC(=O)[C@H](CCC(N)=O)NC(=O)[C@H](Cc3cccc(C(=O)O)c3)NC(=O)[C@H](CC(=O)O)NC1=O)NC(=O)[C@H](CC(C)(C)C)NC(=O)[C@H](CC(=O)O)NC2=O (stereo partly drawn) [I-2053, Ac-PL3-Asp-Npg-B5-Asp-3COOHF-Gln-Ala-Phe-Ala-PyrS2-3Thi-BztA-Ala-NH2] | 0.011 | 5

Source: US20240116985A1, “STAPLED PEPTIDES AND METHODS THEREOF” (priority 2020, published 2024)
